Source: PMC11678328, “Phosphine Oxide Indenoquinoline Derivatives: Synthesis and Biological Evaluation as Topoisomerase I Inhibitors and Antiproliferative Agents” (Molecules, 2024)

What was measured:
[1] = system: A549 (carcinomic human alveolar basal epithelial cell); test: CCK-8 cytotoxicity assay, A549; type: cell-based; details: Homo sapiens, A549, 48 h, A549 cells, 48h, CCK-8
Excerpt: (§1) The cytotoxic effects of the newly synthesized diphenyl(tetrahydro-5H-indeno[2,1-c]quinolin-2-yl)phosphine oxides 8, diphenyl(7H-indeno[2,1-c]quinolin-2-yl)phosphine oxides 9, and diphenyl(7-oxo-7H-indeno[2,1-c]quinolin-2-yl)phosphine oxides 10 derivatives were studied against several human cell lines: A549 (carcinomic human alveolar basal epithelial cell), SKOV3 (human ovarian carcinoma), and HEK293 (human embryonic kidney). Furthermore, in order to analyze the selective cytotoxicity facing exclusively cancerous cell lines, toxicity against a non-cancerous cell line (MRC-5, lung fibroblast cells) was also evaluated (Table 3). The cell counting kit (CCK-8) assay was employed to assess the growth inhibition and cell proliferation inhibitory activities of the compounds, which are described in Table 3 as IC50 values.
(§2) Cells were cultured according to the supplier’s instructions. Cells were seeded in 96-well plates at a density of 1.5–3 × 10^3 cells per well and incubated overnight in 0.1 mL of media supplied with 10% Fetal Bovine Serum (Lonza) in a 5% CO2 incubator at 37 °C. On day 2, drugs were added and the samples were incubated for 48h. After treatment, 10 μL of the cell counting kit-8 was added into each well for an additional 2h incubation at 37 °C. The absorbance of each well was determined by an Automatic Elisa Reader System at 450 nm wavelength (deducting 620 nm). CPT was used as the positive control.

[2] = system: SKOV3 (human ovarian carcinoma); test: CCK-8 cytotoxicity assay, SKOV3; type: cell-based; details: SK-OV-3, SKOV3 cells, 48h
Excerpt: as §1, §2

[3] = target: T1, human TOP1 (Homo sapiens, UniProt P11387); test: TOP1 supercoiled plasmid DNA relaxation assay; type: biochemical; details: compounds at 100 μM, semiquantitative
T1 construct: made in house; host or cells: Saccharomyces cerevisiae TOP1 null strain RS190, plasmid pHT143 (GAL promoter)
T1 sequence (P11387 1-765): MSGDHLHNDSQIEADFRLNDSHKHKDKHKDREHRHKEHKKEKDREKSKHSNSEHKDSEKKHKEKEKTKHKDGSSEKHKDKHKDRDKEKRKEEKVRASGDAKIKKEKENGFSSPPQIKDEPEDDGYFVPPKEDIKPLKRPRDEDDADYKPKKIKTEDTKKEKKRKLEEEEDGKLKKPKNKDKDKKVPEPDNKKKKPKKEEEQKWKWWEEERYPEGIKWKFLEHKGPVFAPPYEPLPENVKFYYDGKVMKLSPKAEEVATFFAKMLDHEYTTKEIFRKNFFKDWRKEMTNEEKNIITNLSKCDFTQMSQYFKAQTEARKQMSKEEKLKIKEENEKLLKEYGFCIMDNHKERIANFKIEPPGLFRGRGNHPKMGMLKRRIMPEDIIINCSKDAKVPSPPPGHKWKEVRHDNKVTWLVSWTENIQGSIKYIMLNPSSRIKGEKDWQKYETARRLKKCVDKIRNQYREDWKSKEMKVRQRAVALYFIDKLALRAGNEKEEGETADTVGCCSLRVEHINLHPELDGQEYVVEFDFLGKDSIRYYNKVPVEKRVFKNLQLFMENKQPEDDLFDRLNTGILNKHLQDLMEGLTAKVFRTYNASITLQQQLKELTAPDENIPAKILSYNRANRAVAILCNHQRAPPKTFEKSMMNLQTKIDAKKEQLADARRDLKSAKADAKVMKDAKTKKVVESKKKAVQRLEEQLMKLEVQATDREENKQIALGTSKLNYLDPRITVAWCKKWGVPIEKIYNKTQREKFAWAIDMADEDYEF
Excerpt: The effect of the previously prepared compounds as TOP1 inhibitors was studied. A conventional supercoiled plasmid relaxation assay was used to determine if the newly fused tetrahydroindenoquinolines 8, more aromatic indenoquinolines 9, and carbonyl derivatives 10 with phosphine oxide substituents inhibit human TOP1 activity by converting supercoiled plasmid DNA to its relaxed form. In these experiments, compound samples were mixed with the enzyme followed by the addition of a supercoiled plasmid DNA substrate, and incubation continued for increasing time intervals (1 min, 3 min, and 5 min). The reaction was terminated by the addition of SDS. DNA relaxation products were then resolved by 1% agarose electrophoresis gel and visualized by gel red staining.
The yeast Saccaromyces cerevisiae TOP1 null strain RS190, which was used for the expression of recombinant human TOP1, was a kind gift from R. Sternglanz (State University of New York, Stony Brook, NY, USA). Plasmid pHT143, for the expression of recombinant TOP1 under the control of an inducible GAL promoter, was described. The plasmids pHT143 were transformed into the yeast S. cerevisiae strain RS190. The proteins were expressed and purified by affinity chromatography essentially as described. The protein concentrations were estimated from Coomassie blue-stained SDS/polyacrylamide gels by comparison to serial dilutions of bovine serum albumin (BSA).
TOP1 activity was assayed using a DNA relaxation assay by incubating 110 ng/mL of TOP1 with 0.5 µg of negatively supercoiled pUC18 in […] of reaction buffer (20 mM Tris HCl, 0.1 mM Na2EDTA, 10 mM MgCl2, […] acetylated BSA, and 150 mM KCl, pH 7.5). The effect of the synthesized phosphorylated derivatives 8, 9, and 10 on the TOP1 activity was measured by adding different concentrations of the compounds, at different time points, as indicated in the text. The reactions were performed at 37 °C stopped by the addition of 0.5% SDS after the indicated time intervals. The samples were protease-digested and electrophoresed in a horizontal 1% agarose gel in 1xTBE (50 mM Tris, 45 mM boric acid, 1 mM EDTA) at 25V during 18h. The gel was stained with gel red (BIOTIUM, 5 mg/mL), destained with water, and photographed under UV illumination. Since all drugs were dissolved in dimethyl sulfoxide (DMSO), a […] control sample containing the same DMSO concentration as the samples incubated with the drugs was included in all experiments.

[4] = target: T1, human TOP1; test: TOP1 supercoiled plasmid DNA relaxation assay; type: biochemical; details: 30 min reaction; compounds at 100 μM; semiquantitative
[5] = system: MRC-5, lung fibroblast cells; test: CCK-8 cytotoxicity assay, MRC5; type: cell-based, human; details: Homo sapiens; MRC5 non-cancerous cells, 48h, CCK-8
Excerpt: as §1, §2

[6] = system: HEK293 (human embryonic kidney); test: CCK-8 cytotoxicity assay, HEK293; type: cell-based; details: HEK293 cells, 48h
Excerpt: as §1, §2

O=C1c2ccccc2-c2c1c(-c1cccc3ccccc13)nc1ccc(P(=O)(c3ccccc3)c3ccccc3)cc21 [Compound 10g, (6-(Naphth-1-yl)-7-oxo-7H-indeno[2,1-c]quinolin-2-yl)diphenylphosphine oxide]
IC50 [1]: > 50 µM | IC50 [2]: > 50 µM | TOP1 Inhibition 1 min ([3]; 1 min reaction): + (weak inhibition) | TOP1 Inhibition 3 min ([3]; 3 min reaction): + (weak inhibition) | TOP1 Inhibition 5 min ([3]; 5 min reaction): + (weak inhibition) | TOP1 Inhibition 30 min [4]: + (weak inhibition) | IC50 [5]: > 50 µM | IC50 [6]: > 50 µM
